# Measured values from patent publication US9856216B2, “Compounds as TNIK, IKKε and TBK1 inhibitors and pharmaceutical composition comprising same” (GREEN CROSS CORPORATION, priority 2015, dated 2018).
# Where a name gives a salt, the structure may show the parent alone.
# Target: T1, TNIK (Homo sapiens, UniProt Q9UKE5)
# T1 construct: purchased Promega V4158
# Assay: ADP-Glo Kinase Assay, inhibition activity on TNIK
# Format: biochemical
# Conditions: not given
# Procedure: The inhibition activities on TNIK, IKKε and TBK1 were measured by a luminometer, TNIK/IKKε/TBK1 Kinase Enzyme System (Promega, Ca# V4158; Invitrogen, PR8031B, Promega, Ca# V3991) and ADP-Glo Kinase Assay using ADP-Glo™ Kinase Analysis Kit (Promega, Ca# V9101) and a kinase reaction buffer [40 mM Tris(pH 7.5), 20 mM MgCl2, 0.1 mg/mL BSA] in accordance with the manufacturer's protocol.
# T1 sequence (Q9UKE5 1-367 limits assumed): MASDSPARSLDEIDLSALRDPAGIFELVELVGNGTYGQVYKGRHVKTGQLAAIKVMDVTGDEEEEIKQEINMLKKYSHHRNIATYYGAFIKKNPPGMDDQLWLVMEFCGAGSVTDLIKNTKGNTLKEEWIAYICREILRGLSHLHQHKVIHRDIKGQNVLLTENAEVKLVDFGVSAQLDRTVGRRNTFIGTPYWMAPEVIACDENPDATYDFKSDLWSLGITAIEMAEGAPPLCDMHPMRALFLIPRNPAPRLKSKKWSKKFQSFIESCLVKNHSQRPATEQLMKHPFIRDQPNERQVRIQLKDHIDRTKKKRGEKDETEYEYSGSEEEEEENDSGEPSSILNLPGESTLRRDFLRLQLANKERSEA
row,TNIK (μM),SMILES
1,Insoluble,"O=C(Nc1ccc(-c2ccncc2)c2c1C(=O)NC2)c1ccccc1 [Example 127, N-(3-oxo-7-(pyridin-4-yl)isoindolin-4-yl)benzamide]"

# Same assay, conditions: read-out: TNIK
row,SMILES,IC50 [nM]
1,"COc1ccc(C(=O)Nc2ccc(-c3ccccc3)c3c2C(=O)NC3)cc1 [Example 121, 4-Methoxy-N-(3-oxo-7-phenylisoindolin-4-yl)benzamide]",3400
2,"O=C(Nc1ccc(-c2ccccc2)c2c1C(=O)NC2)c1ccc(F)cc1 [Example 122, 4-Fluoro-N-(3-oxo-7-phenylisoindolin-4-yl)benzamide]",2200
3,"COc1ccc(C(=O)Nc2ccc(-c3ccc(F)cc3)c3c2C(=O)NC3)cc1 [Example 123, N-(7-(4-fluorophenyl)-3-oxoisoindolin-4-yl)-4-methoxy benzamide]",7000
4,"O=C(Nc1ccc(-c2cccs2)c2c1C(=O)NC2)c1ccccc1 [Example 125, N-(3-oxo-7-(thiophen-2-yl)isoindolin-4-yl)benzamide]",1400
5,"O=C(Nc1ccc(-c2ccncc2)c2c1C(=O)NC2)c1ccccc1 [Example 128, N-(3-oxo-7-(pyridin-4-yl)isoindolin-4-yl)benzamide hydrochloride]",> 20000
6,"COc1ccccc1C(=O)Nc1ccc(-c2ccccc2)c2c1C(=O)NC2 [Example 129, 2-Methoxy-N-(3-oxo-7-phenylisoindolin-4-yl)benzamide]",> 20000
7,"O=C(Nc1ccc(-c2ccccc2)c2c1C(=O)NC2)c1cccc(F)c1 [Example 130, 3-fluoro-N-(3-oxo-7-phenylisoindolin-4-yl)benzamide]",> 20000
8,"CSc1ccc(C(=O)Nc2ccc(-c3ccccc3)c3c2C(=O)NC3)cc1 [Example 131, 4-(Methylthio)-N-(3-oxo-7-phenylisoindolin-4-yl)benzamide]",2300
9,"CCCOc1ccc(-c2ccc(NC(=O)c3ccccc3)c3c2CNC3=O)cc1 [Example 132, N-(3-oxo-7-(4-propoxyphenyl)isoindolin-4-yl)benzamide]",> 20000
10,"CC(C)c1ccc(-c2ccc(NC(=O)c3ccccc3)c3c2CNC3=O)cc1 [Example 133, N-(7-(4-isopropylphenyl)-3-oxoisoindolin-4-yl)benzamide]",> 20000
11,"Cc1cc(F)ccc1C(=O)Nc1ccc(-c2ccccc2)c2c1C(=O)NC2 [Example 137, 4-Fluoro-2-methyl-N-(3-oxo-7-phenylisoindolin-4-yl) benzamide]",> 20000
12,"CN(C)c1ccc(C(=O)Nc2ccc(-c3ccccc3)c3c2C(=O)NC3)cc1 [Example 139, 4-(Dimethylamino)-N-(3-oxo-7-phenylisoindolin-4-yl) benzamide]",1800
13,"COc1ccccc1-c1ccc(NC(=O)c2ccc(F)cc2)c2c1CNC2=O [Example 141, 4-Fluoro-N-(7-(2-methoxyphenyl)-3-oxoisoindolin-4-yl) benzamide]",1600
14,"O=C(Nc1ccc(-c2ccsc2)c2c1C(=O)NC2)c1ccccc1 [Example 146, N-(3-oxo-7-(thiophen-3-yl)isoindolin-4-yl)benzamide]",> 20000
15,"N#Cc1cccc(-c2ccc(NC(=O)c3ccccc3)c3c2CNC3=O)c1 [Example 147, N-(7-(3-cyanophenyl)-3-oxoisoindolin-4-yl)benzamide]",> 20000
16,"CN(C)c1cccc(-c2ccc(NC(=O)c3ccccc3)c3c2CNC3=O)c1 [Example 148, N-(7-(3-(dimethylamino)phenyl)-3-oxoisoindolin-4-yl) benzamide]",7400
17,"O=C(Nc1ccc(-c2ccccc2F)c2c1C(=O)NC2)c1ccccc1 [Example 149, N-(7-(2-fluorophenyl)-3-oxoisoindolin-4-yl)benzamide]",3800

row,SMILES,IC50 [nM]
1,"O=C(Nc1ccc(-c2ccoc2)c2c1C(=O)NC2)c1ccccc1 [Example 150, N-(7-(furan-3-yl)-3-oxoisoindolin-4-yl)benzamide]",2700
2,"O=C(Nc1ccc(-c2cccc(F)c2)c2c1C(=O)NC2)c1ccccc1 [Example 151, N-(7-(3-fluorophenyl)-3-oxoisoindolin-4-yl)benzamide]",1500
3,"O=C(Nc1ccc(-c2cccnc2)c2c1C(=O)NC2)c1ccccc1 [Example 152, N-(3-oxo-7-(pyridin-3-yl)isoindolin-4-yl)benzamide]",> 20000
4,"O=C(Nc1ccc(-c2cncnc2)c2c1C(=O)NC2)c1ccccc1 [Example 154, N-(3-oxo-7-(pyrimidin-5-yl)isoindolin-4-yl)benzamide]",> 20000
5,"O=C(Nc1ccc(-c2ccccc2)c2c1C(=O)NC2)c1sccc1Cl [Example 155, 3-Chloro-N-(3-oxo-7-phenylisoindolin-4-yl)thiophene-2-carboxamide]",2290
6,"O=C(Nc1ccc(-c2ccccc2)c2c1C(=O)NC2)c1ccc(Br)s1 [Example 156, 5-Bromo-N-(3-oxo-7-phenylisoindolin-4-yl)thiophene-2-carboxamide]",2860
7,"O=C(Nc1ccc(-c2ccccc2)c2c1C(=O)NC2)c1sccc1Br [Example 157, 3-Bromo-N-(3-oxo-7-phenylisoindolin-4-yl)thiophene-2-carboxamide]",3400
8,"CCCCC(=O)Nc1ccc(-c2ccccc2)c2c1C(=O)NC2 [Example 159, N-(3-oxo-7-phenylisoindolin-4-yl)pentanamide]",1800
9,"CS(=O)(=O)c1ccc(-c2ccc(NC(=O)c3ccccc3)c3c2CNC3=O)cc1 [Example 167, N-(7-(4-(methylsulfonyl)phenyl)-3-oxoisoindolin-4-yl) benzamide]",9800
10,"CS(=O)(=O)c1cccc(-c2ccc(NC(=O)c3ccccc3)c3c2CNC3=O)c1 [Example 168, N-(7-(3-(methylsulfonyl)phenyl)-3-oxoisoindolin-4-yl) benzamide]",> 20000
11,"CC(=O)Nc1cccc(-c2ccc(NC(=O)c3ccccc3)c3c2CNC3=O)c1 [Example 169, N-(7-(3-acetamidophenyl)-3-oxoisoindolin-4-yl)benzamide]",4200
12,"O=C(Nc1ccc(-c2ccccc2)c2c1C(=O)NC2)c1ccc(Cl)s1 [Example 170, 5-Chloro-N-(3-oxo-7-phenylisoindolin-4-yl)thiophene-2-carboxamide]",3520
13,"COc1cc(OC)cc(-c2ccc(NC(=O)c3ccccc3)c3c2CNC3=O)c1 [Example 172, N-(7-(3,5-dimethoxyphenyl)-3-oxoisoindolin-4-yl)benzamide]",> 20000
14,"O=C(Nc1ccc(-c2ccccc2Cl)c2c1C(=O)NC2)c1ccccc1 [Example 174, N-(7-(2-chlorophenyl)-3-oxoisoindolin-4-yl)benzamide]",> 20000
15,"COc1ccc(-c2ccc(NC(=O)c3ccccc3)c3c2CNC3=O)c(OC)c1 [Example 175, N-(7-(2,4-dimethoxyphenyl)-3-oxoisoindolin-4-yl)benzamide]",3000
16,"COc1ccc(-c2ccc(NC(=O)c3ccccc3)c3c2CNC3=O)cc1OC [Example 176, N-(7-(3,4-dimethoxyphenyl)-3-oxoisoindolin-4-yl)benzamide]",> 20000

# Second part, the compound after the results:
row,IC50 [nM],SMILES
1,170,"CC(=O)Nc1ccc(C(=O)Nc2ccc(-c3ccc(F)cc3)c3c2C(=O)NC3)cc1 [Example 124, 4-Acetamido-N-(7-(4-fluorophenyl)-3-oxoisoindolin-4-yl) benzamide]"
2,600,"O=C(Nc1ccc(-c2ccco2)c2c1C(=O)NC2)c1ccccc1 [Example 126, N-(7-(furan-2-yl)-3-oxoisoindolin-4-yl)benzamide]"
3,54,"COc1cccc(-c2ccc(NC(=O)c3ccco3)c3c2CNC3=O)c1OC [Example 134, N-(7-(2,3-dimethoxyphenyl)-3-oxoisoindolin-4-yl)furan-2-carboxamide]"
4,140,"COc1cccc(-c2ccc(NC(=O)c3ccc(F)cc3)c3c2CNC3=O)c1OC [Example 135, N-(7-(2,3-dimethoxyphenyl)-3-oxoisoindolin-4-yl)-4-fluoro benzamide]"
5,68,"COc1cccc(-c2ccc(NC(=O)c3cccs3)c3c2CNC3=O)c1OC [Example 136, N-(7-(2,3-dimethoxyphenyl)-3-oxoisoindolin-4-yl)thiophene-2-carboxamide]"
6,200,"COc1ccccc1-c1ccc(NC(=O)c2ccc(NC(C)=O)cc2)c2c1CNC2=O [Example 138, 4-Acetamido-N-(7-(2-methoxyphenyl)-3-oxoisoindolin-4-yl) benzamide]"
7,300,"CC(=O)Nc1ccc(C(=O)Nc2ccc(-c3ccco3)c3c2C(=O)NC3)cc1 [Example 140, 4-Acetamido-N-(7-(furan-2-yl)-3-oxoisoindolin-4-yl) benzamide]"
8,950,"O=C(Nc1ccc(-c2ccccc2)c2c1C(=O)NC2)c1ccccc1F [Example 142, 2-Fluoro-N-(3-oxo-7-phenylisoindolin-4-yl)benzamide]"
9,1100,"O=C(Nc1ccc(-c2ccccc2)c2c1C(=O)NC2)c1ccc(Cl)cc1 [Example 143, 4-Chloro-N-(3-oxo-7-phenylisoindolin-4-yl)benzamide]"
10,700,"COc1ccccc1-c1ccc(NC(=O)c2ccccc2)c2c1CNC2=O [Example 144, N-(7-(2-methoxyphenyl)-3-oxoisoindolin-4-yl)benzamide]"
11,1300,"COc1cccc(-c2ccc(NC(=O)c3ccccc3)c3c2CNC3=O)c1 [Example 145, N-(7-(3-methoxyphenyl)-3-oxoisoindolin-4-yl)benzamide]"
12,1270,"O=C(Nc1ccc(-c2ccco2)c2c1C(=O)NC2)c1ccc(F)cc1 [Example 158, 4-Fluoro-N-(7-(furan-2-yl)-3-oxoisoindolin-4-yl)benzamide]"
13,1100,"CC(=O)Nc1ccc(-c2ccccc2)c2c1C(=O)NC2 [Example 160, N-(3-oxo-7-phenylisoindolin-4-yl)acetamide]"
14,57,"COc1cccc(-c2ccc(NC(=O)c3ccccc3)c3c2CNC3=O)c1OC [Example 171, N-(7-(2,3-dimethoxyphenyl)-3-oxoisoindolin-4-yl)benzamide]"
15,750,"O=C(Nc1ccc(C2CC2)c2c1C(=O)NC2)c1ccccc1 [Example 173, N-(7-cyclopropyl-3-oxoisoindolin-4-yl)benzamide]"
